Consider nine compounds from EP0665834B1, “QUINOLONE AND ACRIDINONE DERIVATIVES FOR THE TREATMENT OF URINARY INCONTINENCE” (AstraZeneca AB, priority 1992, dated 1994).

As a reminder, the IC50 is the concentration that inhibits the measured activity by half. Read a high IC50 as weaker potency.

Data set [1] concerns guinea pig detrusor strips. Nature of the data set: in vitro relaxation of guinea pig bladder detrusor strips contracted with 15 mM KCl (first test). As to conditions: for IC50: Cavia porcellus, 15 mM KCl; for potency: in vitro, in words only. Format: cell-based, albino Hartley guinea pigs. From the text: The actions of compounds of formula I as smooth muscle relaxants useful as therapeutic agents for the treatment of urinary incontinence through their action to open potassium channels and hyperpolarize the membrane potential in the bladder detrusor smooth muscle can be shown using suitably designed in vitro tests, such as the one described following. […] "IC50" is a well understood term and means the concentration of test compound which causes a 50% decrease in the in vitro contraction of the bladder tissue described in the following test.
Hale albino Hartley guinea pigs (450-500g) are sacrificed by carbon dioxide induced asphyxiation and quickly exsanguinated. The lower abdominal cavity is opened and the urinary bladder isolated. The bladder is cleaned of surrounding connective and adipose tissue, and the portion above the ureteral orifices is removed and washed in Krebs-Henseleit buffer solution of the following composition (in mH): NaCl 118.0, KCl 4.7, […] 1.2, KH2PO4 1.2, CaCl2 2.5, NaHCO3 25.0 and d-glucose 11.1. The solution is warmed to 37°C and gassed with 95% O2 and 5% CO2. With vigorous bubbling, the solution should have a pH value close to 7.4.
The dome of the washed bladder is cut off and discarded; the remaining bladder is placed on a gauze in a Petri dish containing the buffer solution. A mid-ventral longitudinal cut is made with scissors to open the bladder. The strips cut from the dome and the base edge are discarded. The remaining detrusor mid-section is cut into two horizontal strips with an approximate width of 2.0 mm. These two strips are further bisected at the mid-dorsal section, creating four strip of similar dimensions. Each strip thus contains both dorsal and ventral portions of the bladder.
The two ends of each individual strip are tied to a glass support rod and a force-displacement transducer (Grass model FR03), respectively, with 4-0 black braided silk suture.
The transducers are connected to a polygraph (Grass model 7E), which is calibrated at 5 mV/cm and the calibration checked for linearity with weights of 5 and 0.5 grams. The analog electrical output signals from the polygraph are digitized by a Modular Instrument Hicro 5000 signal processing system using Biowindow Data Acquisition Software, which is run under the Hicrosoft OS/2 operating system with an IBM-compatible PC.
The detrusor strips on the glass rod are secured in 20 ml tissue baths and allowed to equilibrate under a preload tension of 2 grams. […]
When the tissue relaxes to a steady state after the final washing, 15 mH KCl is again applied. […] The effect of the compound at each dose is expressed as % of the maximum inhibitory response, which is further normalized with respect to the corresponding effect of the compound vehicle control. […]

The subject of data set [2] is bladder. Nature of the data set: in vivo oral test in catheterized rats: bladder contraction interval, blood pressure, heart rate. Further details: species or system Male Wistar rats. The settings on record: dosed orally at 3 mg/kg body weight. The protocol:
The compound described in Example 1 is active and selective in this test when dosed orally at 3 mg/kg body weight.
Male Wistar rats (400 - 500 g) were anesthetized with 50 mg/kg Nembutal, i.p. For each rat, the abdominal region and the front and back of the neck were shaved and povidone-iodine was applied to the skin. For carotid catheterization, the left carotid artery was exposed via a small ventral cervical incision. The exposed area was flushed with a 2% lidocaine HCl solution to relax the vessel. The catheter, filled with 0.9% saline, was introduced approximately 2.4 cm into the artery so that its tip resided in the aortic arch. The distal end of the catheter was exteriorized at the nape of the neck, filled with heparin (1000 units/ml) and heat sealed. […]
The rats were weighed, orally sham-dosed (dosing needle introduced, but no fluid expelled), and transvesical saline infusion (.18 ml/min) was begun and continued throughout the experiment. Variations in blood pressure, heart rate, intravesical pressure and urine output were recorded on either a Grass Polygraph or a Gould TA4000 recording system. […] At this point, a basal level of each experimental parameter was recorded and the rats were administered by oral gavage the appropriate dose of compound (in a 75% PEG 400 - saline vehicle) in concentrations such that the volume was 1 ml/kg body weight. […]

Data set [3] concerns guinea pig detrusor strips. The data set is described as follows: second in vitro test: guinea pig detrusor strips contracted with 80 mM KCl. Format: cell-based. The settings on record: for potency in the second test (80 mM KCl) compared with the first test (15 mM KCl): guinea pig detrusor strips. The procedure:
This second in vitro test is similar to the one described above with regard to tissue preparation and data acquisition. However, the following exceptions are noted. In this second test, the contraction of the detrusor strips during priming and after the equilibration period is achieved with 80 mM instead of 15 mM KCl (total concentration in the bath).
Typical calcium channel blockers like nifedipine, nimodipine, isradipine, and verapamil are able to relax and reduce the myogenic activity of guinea pig detrusor strips in both tests by virtue of their blocking action on calcium channels.

The subject of data set [4] is urinary incontinence. The settings on record: preliminary clinical trial; Nurse et al, British Journal of Urology (1991); cited from earlier work.
Data set [5] in a line: chemical stability (no method given). Format: physicochemical. The settings on record: in words; compared with corresponding compounds wherein R^2 is methyl.
In data set [6] the test system is cardiovascular system. As to conditions: Vitolinya et al, 1981; cited from earlier work.
The subject of data set [7] is intestinal smooth muscle. As to conditions: Vitolinya et al, 1981; cited from earlier work.

As for `CC1=CC(c2ccc(C(F)(F)F)cc2)C2=C(CCCC2=O)N1` (centres unmarked) [Example 9, 2-Methyl-4-(4-trifluoromethylphenyl)-4,6,7,8-tetrahydro-5(1H)-quinolone], the midpoint of inhibition in data set [1] (concentration causing 50% decrease in in vitro contraction of bladder tissue), the IC50, lay at 8.11 µM. `CC1=CC(c2cccc([N+](=O)[O-])c2)C2=C(CCCC2=O)N1` (centres unmarked) [Example 1, 2-Methyl-4-(3-nitrophenyl)-4,6,7,8-tetrahydro-5(1H)-quinolone]: in data set [2], the outcome was active. `CC1(C)Oc2ccc(C#N)cc2C(N2CCCC2=O)C1O` (centres unmarked) [cromakalim]: in data set [3] (80 mM KCl, at concentrations as high as 30 µM), the relaxant activity result was “insignificant relaxant activity”. Besides, in data set [1] (relaxant activity in the first test), the IC50 was 0.6 to 0.9 µM. For the same compound, the “efficacy in treatment of urinary incontinence” value in data set [4] is recorded as “effective”. In the case of `N#Cc1cccc(C2C=C(C(F)(F)F)NC3=C2C(=O)CCC3)c1` (centres unmarked) [Example 39, 2-Trifluoromethyl-4-(3-cyanophenyl)-4,6,7,8-tetrahydro-5(1H)-quinolone], in data set [5], the chemical stability result is given as “superior”. Also, in data set [1], the potency entry is “surprisingly good potency in vitro”. `COc1ccc(CCN(C)CCCC(C#N)(c2ccc(OC)c(OC)c2)C(C)C)cc1OC` (centres unmarked) [verapamil]: the “potency in the second test (80 mM KCl) compared with the first test (15 mM KCl)” value in data set [3] is “more potent in the second test”. For the compound `COc1ccc(Cc2nccc3cc(OC)c(OC)cc23)cc1OC` [papaverine], the “effect on sustained tension after high KCl stimulation” value in data set [3] (80 mM KCl, 300 µM) was “totally abolished”. `O=C1CCCC2=C1C(c1cccc([N+](=O)[O-])c1)C=C(C(F)(F)F)N2` (centres unmarked) [Example 15, 2-Trifluoromethyl-4-(3-nitrophenyl)-4,6,7,8-tetrahydro-5(1H)quinolone]: the chemical stability entry in data set [5] is listed as “superior”. In addition, the potency result in data set [1] was “surprisingly good potency in vitro”. As to `CC1=C(C#N)C(c2ccccc2)C2=C(CC(C)(C)CC2=O)N1` (centres unmarked) [3-Cyano-4-phenyl-2,7,7-trimethyl-4,6,7,8-tetrahydro-5(1H)-quinolone], the hypotensive properties entry in data set [6] is recorded as “hypotensive properties”. In data set [7], the “blocking of spasmogenic effect of acetylcholine and barium chloride” value is on record as “capable of blocking the spasmogenic effect”.

Take `COC(=O)C1=C(C)NC(C)=C(C(=O)OC(C)C)C1c1cccc2nonc12` (centres unmarked) [isradipine]: the “potency in the second test (80 mM KCl) compared with the first test (15 mM KCl)” value in data set [3] is “more potent in the second test”.
